Experimental data reported in ChEMBL document CHEMBL1132798 (Bioorg Med Chem Lett, 2000).
Activity calls are given as the source filed them. The calls are words filed in the database; no cut-off is given here.

Tests used:
[1] = target: Opioid receptors; mu & delta (Homo sapiens) (UniProt P41143+P35372); assay: Ratio of binding affinity to mu receptor to that of delta receptor; assay type: protein assay
[2] = target: Kappa-type opioid receptor (Rattus norvegicus, UniProt P34975); assay: Compound was evaluated for its ability to displace [3H]U-69593 in CHO cells expressing the cloned Opioid receptor kappa 1; assay type: cell-based
Mu-type opioid receptor = Mu-type opioid receptor (Rattus norvegicus, UniProt P33535); assay: Compound was evaluated for its ability to displace [3H]DAMGO in C6 glioma cells expressing the cloned Opioid receptor mu 1; assay type: cell-based
[3] = target: Delta-type opioid receptor (Rattus norvegicus, UniProt P33533); assay: Compound was evaluated for its ability to displace [3H]p-CI-DPDPE in C6 glioma cells expressing the cloned Opioid receptor delta 1; assay type: cell-based
Mus musculus [4] = species on record: Mus musculus; assay: Compound was evaluated for antinociceptive activity in mouse; assay type: functional
Mus musculus [5] = species on record: Mus musculus; assay: Compound was evaluated for antinociceptive activity in mouse using hot plate assay; assay type: functional
Mus musculus [6] = species on record: Mus musculus; assay: Compound was evaluated for antinociceptive activity in mouse using tail flick assay; assay type: functional
Mus musculus [7] = species on record: Mus musculus; assay: Compound was evaluated for antinociceptive activity in mouse using paraphenylquinone assay; assay type: functional
Mus musculus [8] = species on record: Mus musculus; assay: Compound was evaluated for antinociceptive activity in mouse; IA means inactive; assay type: functional, organism-based
Mus musculus [9] = species on record: Mus musculus; assay: Compound was evaluated for antinociceptive activity in mouse using tail flick vs morphine assay; assay type: functional
Mus musculus [10] = species on record: Mus musculus; assay: Compound was evaluated for antinociceptive activity in mouse using tail flick assay; Inactive; assay type: functional, organism-based
Mus musculus [11] = species on record: Mus musculus; assay: Compound was evaluated for antinociceptive activity in mouse using paraphenylquinone assay; Inactive; assay type: functional, organism-based
Mus musculus [12] = species on record: Mus musculus; assay: Compound was evaluated for antinociceptive activity in mouse using hot plate assay; Inactive; assay type: functional, organism-based
Mus musculus [13] = species on record: Mus musculus; assay: Compound was evaluated for antinociceptive activity in mouse using tail flick vs morphine assay; Inactive; assay type: functional, organism-based

Sequence of Delta-type opioid receptor (P33533 whole entry): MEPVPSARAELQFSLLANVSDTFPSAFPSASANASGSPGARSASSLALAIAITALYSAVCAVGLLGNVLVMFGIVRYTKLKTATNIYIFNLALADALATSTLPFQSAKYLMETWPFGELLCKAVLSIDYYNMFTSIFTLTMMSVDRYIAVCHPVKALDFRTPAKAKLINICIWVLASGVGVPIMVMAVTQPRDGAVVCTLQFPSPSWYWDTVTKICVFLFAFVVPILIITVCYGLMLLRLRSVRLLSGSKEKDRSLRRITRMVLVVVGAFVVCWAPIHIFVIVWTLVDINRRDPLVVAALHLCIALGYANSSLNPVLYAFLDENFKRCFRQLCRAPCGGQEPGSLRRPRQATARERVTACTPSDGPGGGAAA
Sequence of Opioid receptors; mu & delta (Homo sapiens) (P35372 whole entry, looked up): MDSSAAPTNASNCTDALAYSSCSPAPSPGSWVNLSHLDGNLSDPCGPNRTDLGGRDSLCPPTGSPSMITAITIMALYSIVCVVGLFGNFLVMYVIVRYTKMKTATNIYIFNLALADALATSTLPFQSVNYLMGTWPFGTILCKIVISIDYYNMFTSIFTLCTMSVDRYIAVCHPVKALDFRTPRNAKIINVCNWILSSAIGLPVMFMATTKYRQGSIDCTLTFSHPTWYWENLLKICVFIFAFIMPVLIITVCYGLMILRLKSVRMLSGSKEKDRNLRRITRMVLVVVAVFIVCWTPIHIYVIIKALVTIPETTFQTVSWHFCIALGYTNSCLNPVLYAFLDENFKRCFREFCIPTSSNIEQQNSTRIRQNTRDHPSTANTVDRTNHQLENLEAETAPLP
Sequence of Opioid receptors; mu & delta (Homo sapiens) (P41143 whole entry, looked up): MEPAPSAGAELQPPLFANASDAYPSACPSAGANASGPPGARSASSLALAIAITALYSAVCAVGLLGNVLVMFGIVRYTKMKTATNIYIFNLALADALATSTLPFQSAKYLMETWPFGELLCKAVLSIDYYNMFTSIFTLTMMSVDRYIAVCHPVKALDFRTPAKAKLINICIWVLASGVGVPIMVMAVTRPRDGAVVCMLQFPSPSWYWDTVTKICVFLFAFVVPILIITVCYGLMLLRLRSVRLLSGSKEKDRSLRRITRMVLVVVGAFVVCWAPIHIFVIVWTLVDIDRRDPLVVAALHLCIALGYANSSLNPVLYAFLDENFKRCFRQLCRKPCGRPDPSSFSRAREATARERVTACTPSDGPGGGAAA
Sequence of Kappa-type opioid receptor (P34975 whole entry): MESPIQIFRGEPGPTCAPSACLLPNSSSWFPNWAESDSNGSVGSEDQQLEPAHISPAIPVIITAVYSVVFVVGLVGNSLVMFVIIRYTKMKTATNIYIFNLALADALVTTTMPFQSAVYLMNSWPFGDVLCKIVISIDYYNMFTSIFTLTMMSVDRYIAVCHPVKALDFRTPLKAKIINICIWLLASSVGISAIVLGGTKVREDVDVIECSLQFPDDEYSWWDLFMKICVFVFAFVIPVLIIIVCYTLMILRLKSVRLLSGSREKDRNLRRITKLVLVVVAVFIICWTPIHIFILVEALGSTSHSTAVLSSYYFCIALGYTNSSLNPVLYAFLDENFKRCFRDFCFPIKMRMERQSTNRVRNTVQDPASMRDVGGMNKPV
Sequence of Mu-type opioid receptor (P33535 whole entry): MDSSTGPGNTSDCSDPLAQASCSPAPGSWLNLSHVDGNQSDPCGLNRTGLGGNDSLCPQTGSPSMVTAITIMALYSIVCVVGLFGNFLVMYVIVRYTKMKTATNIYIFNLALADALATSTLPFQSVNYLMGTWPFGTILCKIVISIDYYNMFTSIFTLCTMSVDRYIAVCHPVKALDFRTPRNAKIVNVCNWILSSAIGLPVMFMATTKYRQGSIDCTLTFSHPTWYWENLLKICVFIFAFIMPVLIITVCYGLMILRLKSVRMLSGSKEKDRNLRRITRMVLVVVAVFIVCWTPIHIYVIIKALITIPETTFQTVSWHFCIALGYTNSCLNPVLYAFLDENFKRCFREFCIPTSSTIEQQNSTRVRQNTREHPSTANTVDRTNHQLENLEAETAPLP

SMILES: Oc1ccc2c3c1OC1c4[nH]c5ccccc5c4C[C@@]4(O)[C@@H](C2)N(Cc2ccccc2)CCC314 (some centres undefined)
- Ratio [1]: 46
- Ki [2]: 134 nM
- Ki (Mu-type opioid receptor): 5330 nM
- Ki [3]: 115 nM

SMILES: CCCN(CC1CC1)C1Cc2ccc(O)c3c2C2C(O3)C(NC(=O)/C=C/C(=O)OC)CC[C@]21O (some centres undefined)
- AD50 (Mus musculus [4]): 1.25 ug brain-1

SMILES: Oc1ccc2c3c1OC1c4[nH]c5ccccc5c4C[C@@]4(O)[C@@H](C2)N(CCC2CCCCC2)CCC314 (some centres undefined)
- Ratio [1]: 0
- Activity (Mus musculus [5]): 2.42 mg/kg
- Ki [2]: 378 nM
- Ki (Mu-type opioid receptor): 7.3 nM
- Ki [3]: 181 nM
- Activity (Mus musculus [6]): 3.86 mg/kg
- Activity (Mus musculus [7]): 0.39 mg/kg

SMILES: Oc1ccc2c3c1O[C@H]1c4[nH]c5ccccc5c4C[C@@]4(O)[C@@H](C2)N(CC2CC2)CC[C@]314 [NALTRINDOLE]
- Activity (Mus musculus [8]): inactive
- Ki [2]: 5.8 nM
- Ki [3]: 0.04 nM

SMILES: CN1CC[C@]23c4c5ccc(O)c4O[C@H]2[C@@H](O)C=C[C@H]3[C@H]1C5.CN1CC[C@]23c4c5ccc(O)c4O[C@H]2[C@@H](O)C=C[C@H]3[C@H]1C5.O=S(=O)(O)O
- Activity (Mus musculus [5]): 3.1 mg/kg
- Activity (Mus musculus [6]): 0.73 mg/kg
- Activity (Mus musculus [7]): 0.4 mg/kg

SMILES: C=CCN1CC[C@]23c4c5ccc(O)c4O[C@H]2C(=O)CC[C@@]3(O)[C@H]1C5 [NALOXONE]
- Activity (Mus musculus [9]): 0.04 mg/kg
- AD50 (Mus musculus [4]): 0.1

SMILES: Oc1ccc2c3c1OC1c4[nH]c5ccccc5c4C[C@@]4(O)[C@@H](C2)N(CC2CCCCC2)CCC314 (some centres undefined)
- Ratio [1]: 20
- Ki [2]: 1110 nM
- Ki (Mu-type opioid receptor): 1920 nM
- Activity (Mus musculus [10]): inactive
- Activity (Mus musculus [11]): inactive
- Ki [3]: 94.5 nM
- Activity (Mus musculus [12]): inactive
- Activity (Mus musculus [13]): inactive

SMILES: Oc1ccc2c3c1O[C@H]1c4[nH]c5c(c4C[C@@]4(O)[C@@H](C2)N(CC2CC2)CC[C@]314)C[C@@]1(O)[C@H]2Cc3ccc(O)c4c3[C@@]1(CCN2CC1CC1)[C@H]5O4
- Activity (Mus musculus [8]): inactive
